Activity calls are given as the source filed them. How the calls were made is not given here.

For the data set, the system named is CCRIS mutagenicity, Ames/micronucleus/aberration tests. Nature of the data set: CCRIS mutagenicity studies.
[1] abbreviates: Test System: AMES SALMONELLA TYPHIMURIUM, Strain/Indicator: TA1535, Metabolic Activation: NONE, Method: STANDARD PLATE.
Setting [2] is: Test System: AMES SALMONELLA TYPHIMURIUM, Strain/Indicator: TA1538, Metabolic Activation: NONE, Method: STANDARD PLATE.

For the compound `c1ccc(NNc2ccccc2)cc1`, the mutagenic call (End Point: IN VITRO CHROMOSOMAL ABERRATIONS, Test System: CHINESE HAMSTER OVARY CELLS, Metabolic Activation: NONE) was “active; positive; statistically significant increase, but not dose-related”; the mutagenic call (End Point: IN VITRO CHROMOSOMAL ABERRATIONS, Test System: CHINESE HAMSTER OVARY CELLS, Metabolic Activation: RAT, LIVER, S-9, AROCLOR 1254) is “active; positive”; the mutagenic call (Test System: AMES SALMONELLA TYPHIMURIUM, Strain/Indicator: TA98, Metabolic Activation: HAMSTER, LIVER, S-9, AROCLOR 1254, Method: STANDARD PLATE) is “inactive; negative”; the mutagenic call (Test System: AMES SALMONELLA TYPHIMURIUM, Strain/Indicator: TA98, Metabolic Activation: HAMSTER, LIVER, S-9, Method: STANDARD PLATE) is “inactive; negative”; the mutagenic call (Test System: AMES SALMONELLA TYPHIMURIUM, Strain/Indicator: TA98, Metabolic Activation: MOUSE, LIVER, S-9, AROCLOR 1254, Method: STANDARD PLATE) was “inactive; negative”; the mutagenic call (Test System: AMES SALMONELLA TYPHIMURIUM, Strain/Indicator: TA98, Metabolic Activation: MOUSE, LIVER, S-9, Method: STANDARD PLATE) is “inactive; negative”. Moreover, the mutagenic call runs as follows: (Test System: AMES SALMONELLA TYPHIMURIUM, Strain/Indicator: TA98, Metabolic Activation: NONE, Method: STANDARD PLATE) “inactive; negative”; (Test System: AMES SALMONELLA TYPHIMURIUM, Strain/Indicator: TA98, Metabolic Activation: RAT, LIVER, S-9, Method: STANDARD PLATE) “inactive; negative”; (Test System: AMES SALMONELLA TYPHIMURIUM, Strain/Indicator: TA100, Metabolic Activation: HAMSTER, LIVER, S-9, AROCLOR 1254, Method: STANDARD PLATE) “inactive; negative”; (Test System: AMES SALMONELLA TYPHIMURIUM, Strain/Indicator: TA100, Metabolic Activation: HAMSTER, LIVER, S-9, Method: STANDARD PLATE) “inactive; negative”; (Test System: AMES SALMONELLA TYPHIMURIUM, Strain/Indicator: TA100, Metabolic Activation: MOUSE, LIVER, S-9, AROCLOR 1254, Method: STANDARD PLATE) “active; positive”; (Test System: AMES SALMONELLA TYPHIMURIUM, Strain/Indicator: TA100, Metabolic Activation: MOUSE, LIVER, S-9, Method: STANDARD PLATE) “inactive; negative”. Besides, the mutagenic call by setting is: (Test System: AMES SALMONELLA TYPHIMURIUM, Strain/Indicator: TA100, Metabolic Activation: NONE, Method: STANDARD PLATE) “inactive; negative”; (Test System: AMES SALMONELLA TYPHIMURIUM, Strain/Indicator: TA100, Metabolic Activation: RAT, LIVER, S-9, AROCLOR 1254, Method: STANDARD PLATE) “active; positive”; (Test System: AMES SALMONELLA TYPHIMURIUM, Strain/Indicator: TA100, Metabolic Activation: RAT, LIVER, S-9, Method: STANDARD PLATE) “inactive; negative”; (Test System: AMES SALMONELLA TYPHIMURIUM, Strain/Indicator: TA1535, Metabolic Activation: HAMSTER, LIVER, S-9, AROCLOR 1254, Method: STANDARD PLATE) “inactive; negative”; (Test System: AMES SALMONELLA TYPHIMURIUM, Strain/Indicator: TA1535, Metabolic Activation: HAMSTER, LIVER, S-9, Method: STANDARD PLATE) “inactive; negative”; (Test System: AMES SALMONELLA TYPHIMURIUM, Strain/Indicator: TA1535, Metabolic Activation: MOUSE, LIVER, S-9, Method: STANDARD PLATE) “inactive; negative”. Besides, the mutagenic call by setting is: under setting [1], “inactive; negative”; (Test System: AMES SALMONELLA TYPHIMURIUM, Strain/Indicator: TA1535, Metabolic Activation: RAT, LIVER, S-9, AROCLOR 1254, Method: STANDARD PLATE) “inactive; negative”; (Test System: AMES SALMONELLA TYPHIMURIUM, Strain/Indicator: TA1535, Metabolic Activation: RAT, LIVER, S-9, Method: STANDARD PLATE) “inactive; negative”; (Test System: AMES SALMONELLA TYPHIMURIUM, Strain/Indicator: TA1537, Metabolic Activation: HAMSTER, LIVER, S-9, AROCLOR 1254, Method: STANDARD PLATE) “inactive; negative”; (Test System: AMES SALMONELLA TYPHIMURIUM, Strain/Indicator: TA1537, Metabolic Activation: HAMSTER, LIVER, S-9, Method: STANDARD PLATE) “inactive; negative”; (Test System: AMES SALMONELLA TYPHIMURIUM, Strain/Indicator: TA1537, Metabolic Activation: MOUSE, LIVER, S-9, AROCLOR 1254, Method: STANDARD PLATE) “inactive; negative”. In addition, the mutagenic call runs as follows: (Test System: AMES SALMONELLA TYPHIMURIUM, Strain/Indicator: TA1537, Metabolic Activation: MOUSE, LIVER, S-9, Method: STANDARD PLATE) “inactive; negative”; (Test System: AMES SALMONELLA TYPHIMURIUM, Strain/Indicator: TA1537, Metabolic Activation: NONE, Method: STANDARD PLATE) “inactive; negative”; (Test System: AMES SALMONELLA TYPHIMURIUM, Strain/Indicator: TA1537, Metabolic Activation: RAT, LIVER, S-9, AROCLOR 1254, Method: STANDARD PLATE) “inactive; negative”; (Test System: AMES SALMONELLA TYPHIMURIUM, Strain/Indicator: TA1537, Metabolic Activation: RAT, LIVER, S-9, Method: STANDARD PLATE) “inactive; negative”; (Test System: AMES SALMONELLA TYPHIMURIUM, Strain/Indicator: TA1538, Metabolic Activation: HAMSTER, LIVER, S-9, AROCLOR 1254, Method: STANDARD PLATE) “inactive; negative”; (Test System: AMES SALMONELLA TYPHIMURIUM, Strain/Indicator: TA1538, Metabolic Activation: HAMSTER, LIVER, S-9, Method: STANDARD PLATE) “inactive; negative”. Also, the mutagenic call runs as follows: (Test System: AMES SALMONELLA TYPHIMURIUM, Strain/Indicator: TA1538, Metabolic Activation: MOUSE, LIVER, S-9, AROCLOR 1254, Method: STANDARD PLATE) “inactive; negative”; (Test System: AMES SALMONELLA TYPHIMURIUM, Strain/Indicator: TA1538, Metabolic Activation: MOUSE, LIVER, S-9, Method: STANDARD PLATE) “inactive; negative”; under setting [2], “inactive; negative”; (Test System: AMES SALMONELLA TYPHIMURIUM, Strain/Indicator: TA1538, Metabolic Activation: RAT, LIVER, S-9, AROCLOR 1254, Method: STANDARD PLATE) “inactive; negative”; (Test System: AMES SALMONELLA TYPHIMURIUM, Strain/Indicator: TA1538, Metabolic Activation: RAT, LIVER, S-9, Method: STANDARD PLATE) “inactive; negative”; (Test System: E. COLI, Strain/Indicator: WP2 UVRA, Metabolic Activation: HAMSTER, LIVER, S-9, AROCLOR 1254, Method: STANDARD PLATE) “inactive; negative”. The mutagenic call is, setting by setting: (Test System: E. COLI, Strain/Indicator: WP2 UVRA, Metabolic Activation: HAMSTER, LIVER, S-9, Method: STANDARD PLATE) “inactive; negative”; (Test System: E. COLI, Strain/Indicator: WP2 UVRA, Metabolic Activation: MOUSE, LIVER, S-9, AROCLOR 1254, Method: STANDARD PLATE) “inactive; negative”; (Test System: E. COLI, Strain/Indicator: WP2 UVRA, Metabolic Activation: MOUSE, LIVER, S-9, Method: STANDARD PLATE) “inactive; negative”; (Test System: E. COLI, Strain/Indicator: WP2 UVRA, Metabolic Activation: NONE, Method: STANDARD PLATE) “inactive; negative”; (Test System: E. COLI, Strain/Indicator: WP2 UVRA, Metabolic Activation: RAT, LIVER, S-9, AROCLOR 1254, Method: STANDARD PLATE) “inactive; negative”; (Test System: E. COLI, Strain/Indicator: WP2 UVRA, Metabolic Activation: RAT, LIVER, S-9, Method: STANDARD PLATE) “inactive; negative”.
For `CC(C)(C)N(Cc1ccccc1)CC(O)c1ccc(O)c(CO)c1` (stereo unspecified), the mutagenic call by setting is: (Test System: AMES SALMONELLA TYPHIMURIUM, Strain/Indicator: TA98(PKM101), Metabolic Activation: NONE, Method: STANDARD PLATE) “inactive; negative”; (Test System: AMES SALMONELLA TYPHIMURIUM, Strain/Indicator: TA100(PKM101), Metabolic Activation: NONE, Method: STANDARD PLATE) “active; positive”; under setting [1], “inactive; negative”; under setting [2], “inactive; negative”.

The values above are taken from PubChem BioAssay AID1259407 (Chemical Carcinogenesis Research Information System (CCRIS), 2018).
